Measurements as given in patent US20070232698A1, “Slimming Skin External Preparation and Cosmetic Containing the Same” (priority 2004, published 2007).
Counter-ions that a name gives are not always drawn.

Test system: Mouse 3T3 adipocytes
Experiment: Measurement of fat metabolic activity for mouse 3T3 adipocytes (free glycerol in culture medium)
Format: cell-based
Conditions: 250 μM test substance, medium recovered after 24 hours; control (none) = 100
Method: The five carnitine and carnitine derivatives 1) to 5) used in Example 1 were tested. The fat metabolic activity was measured and compared by quantitative determination of glycerol in the culture medium based on the fact that metabolism of the fat accumulated in adipocytes releases glycerol and free fatty acid to the culture medium.
Mouse 3T3 cells as the preadipocytes were disseminated on a 10 cm-diameter dish such that 1×10^4 cells were on the dish. […] Thereafter, the culture medium was replaced with a 10% FCS-containing DMEM culture medium that contained […] of dexamethasone, 0.5 mM of isobutylmethylxanthine and 10 μg/ml of insulin, and incubation was continued for another 2 days. Subsequently, the culture medium was replaced again with a 10% FCS-containing ordinary DMEM culture medium, and incubation was performed for another week, resulting in differentiation of the preadipocytes into adipocytes. Next, the culture medium was replaced with an ordinary culture medium that contained 250 μM of the carnitine or carnitine derivative of the five substances 1) to 5) used in Example 1, and the culture medium was recovered after 24 hours. The cells were washed with Dulbecco's PBS (−) and were recovered. Cells incubated in the absence of the test substances were used as the control. The glycerol content in the culture medium was quantitatively determined using Glycerol Test E Wako (Wako Pure Chemical Industries, Ltd.).
The fat metabolic activity for mouse 3T3 adipocytes was determined based on the free glycerol content in the same manner as in Example 2, except that the two carnitine and carnitine derivative 1) and 6) used in Example 4 were tested.
The fat metabolic activity for mouse 3T3 adipocytes was determined based on the free glycerol content in the same manner as in Example 2, except that the three carnitine and carnitine derivatives 1), 7) and 8) used in Example 7 were tested.

Row | SMILES | Free glycerol content (% relative to the control)
1 | C[N+](C)(C)C[C@H](O)CC(=O)[O-] [Test substance 1), L-Carnitine, reference compound] | 120 % relative to the control
2 | CCCCCCCCCCCCCCCCOC(=O)C[C@H](C[N+](C)(C)C)OC(=O)CCCCCCCCCCCCCCC.[Cl-] [Test substance 8), Hexadecanoyl-L-carnitine hexadecyl ester hydrochloride] | 148 % relative to the control
3 | CCCCCCCCCCCCCCCCOC(=O)C[C@@H](O)C[N+](C)(C)C.[Cl-] [Test substance 6), L-Carnitine hexadecyl ester hydrochloride] | 165 % relative to the control
4 | CCCCCCCCCCCCCCCCCC(=O)O[C@H](CC(=O)O)C[N+](C)(C)C.[Cl-] [Test substance 5), Octadecanoyl-L-carnitine hydrochloride] | 176 % relative to the control
5 | CCCCCCCCCCCCCCCC(=O)O[C@H](CC(=O)OC)C[N+](C)(C)C.[Cl-] [Test substance 7), Hexadecanoyl-L-carnitine methyl ester hydrochloride] | 143 % relative to the control
6 | CCCCCC(=O)O[C@H](CC(=O)O)C[N+](C)(C)C.[Cl-] [Test substance 2), Hexanoyl-L-carnitine hydrochloride] | 155 % relative to the control

Test system: skin together with subcutaneous fat tissues
Experiment: Subcutaneous fat breakdown test (rat abdominal skin with subcutaneous fat in Franz diffusion cell)
Conditions: lower cell PBS (−), 37° C., 8 hours; average of three measurements; control (none) 20
Method: A male Wister rat, 10 weeks old, was shaved on the abdomen, and the skin was removed together with subcutaneous fat tissues and was placed in a Franz diffusion cell. An upper cell on the skin surface was filled with a buffer solution containing the Example 1 test substance, and a lower cell was filled with Dulbecco's PBS (−). The diffusion cell was held at 37° C. and was allowed to stand for 8 or 16 hours. After the lapse of each of the standing times, PBS (−) was withdrawn from the lower cell. The content of free glycerol resulting from the fat breakdown was measured with use of Glycerol Test E Wako. The results are averages of three measurements.
The free glycerol contents were measured in the same manner as in Example 3, except that the two carnitine and carnitine derivative 1) and 6) used in Example 4 were tested. The results are averages of three measurements.
The free glycerol contents were measured in the same manner as in Example 3, except that the three carnitine and carnitine derivatives 1), 7) and 8) used in Example 7 were tested. The results are averages of three measurements.

Row | SMILES | Free glycerol, After 8 hours
7 | C[N+](C)(C)C[C@H](O)CC(=O)[O-] [Test substance 1), L-Carnitine, reference compound] | 120 µmol/mL
8 | CCCCCCCCCCCCCCCCOC(=O)C[C@H](C[N+](C)(C)C)OC(=O)CCCCCCCCCCCCCCC.[Cl-] [Test substance 8), Hexadecanoyl-L-carnitine hexadecyl ester hydrochloride] | 75 µmol/mL
9 | CCCCCCCCCCCCCCCCOC(=O)C[C@@H](O)C[N+](C)(C)C.[Cl-] [Test substance 6), L-Carnitine hexadecyl ester hydrochloride] | 110 µmol/mL
10 | CCCCCCCCCCCCCCCCCC(=O)O[C@H](CC(=O)O)C[N+](C)(C)C.[Cl-] [Test substance 5), Octadecanoyl-L-carnitine hydrochloride] | 117 µmol/mL
11 | CCCCCCCCCCCCCCCC(=O)O[C@H](CC(=O)OC)C[N+](C)(C)C.[Cl-] [Test substance 7), Hexadecanoyl-L-carnitine methyl ester hydrochloride] | 68 µmol/mL
12 | CCCCCC(=O)O[C@H](CC(=O)O)C[N+](C)(C)C.[Cl-] [Test substance 2), Hexanoyl-L-carnitine hydrochloride] | 116 µmol/mL

Same assay, conditions: lower cell PBS (−), 37° C., 16 hours; average of three measurements; control (none) 20

Row | SMILES | Free glycerol, After 16 hours
13 | C[N+](C)(C)C[C@H](O)CC(=O)[O-] [Test substance 1), L-Carnitine, reference compound] | 125 µmol/mL
14 | CCCCCCCCCCCCCCCCOC(=O)C[C@H](C[N+](C)(C)C)OC(=O)CCCCCCCCCCCCCCC.[Cl-] [Test substance 8), Hexadecanoyl-L-carnitine hexadecyl ester hydrochloride] | 150 µmol/mL
15 | CCCCCCCCCCCCCCCCOC(=O)C[C@@H](O)C[N+](C)(C)C.[Cl-] [Test substance 6), L-Carnitine hexadecyl ester hydrochloride] | 116 µmol/mL
16 | CCCCCCCCCCCCCCCCCC(=O)O[C@H](CC(=O)O)C[N+](C)(C)C.[Cl-] [Test substance 5), Octadecanoyl-L-carnitine hydrochloride] | 158 µmol/mL
17 | CCCCCCCCCCCCCCCC(=O)O[C@H](CC(=O)OC)C[N+](C)(C)C.[Cl-] [Test substance 7), Hexadecanoyl-L-carnitine methyl ester hydrochloride] | 145 µmol/mL
18 | CCCCCC(=O)O[C@H](CC(=O)O)C[N+](C)(C)C.[Cl-] [Test substance 2), Hexanoyl-L-carnitine hydrochloride] | 138 µmol/mL

Test system: Mouse 3T3-F442A cells
Experiment: Triglyceride accumulation in adipocytes with base acylcarnitine plus test substance (oil red staining)
Format: cell-based
Conditions: base hexadecanoyl-L-carnitine hydrochloride plus 50 μM test substance (ginkgo biloba extract 30 μg/ml; garcinia extract as hydroxycitric acid), 4 days; control = base alone
Method: The incubation was continued for another 4 days. The control was incubated using a culture medium that contained the base alone (no test substances). After the 4-days incubation, the cells were washed three times with Dulbecco's PBS (−). The triglyceride amount accumulated in the cells was quantitatively determined by oil red staining. […] Mouse 3T3-F442A cells were incubated as described in Example 10, and differentiation into adipocytes was observed. […] The incubation was continued for another 4 days. The control was incubated using a culture medium that contained the base alone (no test substances). After the 4-days incubation, the cells were washed three times with Dulbecco's PBS (−). The triglyceride amount accumulated in the cells was quantitatively determined by oil red staining.

Row | SMILES | accumulated triglyceride amount relative to the control (100%), Base Hexadecanoyl-L-carnitine hydrochloride
19 | Cc1c(C)c2c(c(C)c1OP(=O)([O-])[O-])CCC(C)(CCCC(C)CCCC(C)CCCC(C)C)O2.[Na+].[Na+] (racemic) [dl-α-Tocopherol phosphate sodium salt] | 100%
20 | Cc1ccc(N(CC2=NCCN2)c2cccc(O)c2)cc1 [Phentolamine hydrochloride] | 68%
21 | CCCCCCCCCCCCCCCC(=O)OC[C@H](O)[C@H]1OC(=O)C(OP(=O)([O-])[O-])=C1[O-].[Na+].[Na+].[Na+] [Ascorbic acid-2-phosphoric acid-6-palmitate sodium salt] | 96%
22 | O=C1O[C@H]([C@@H](O)CO)C(O)=C1O[C@H]1O[C@H](CO)[C@@H](O)[C@H](O)[C@H]1O [Ascorbic acid-2-glucoside] | 99%
23 | O=C1O[C@H]([C@@H](O)CO)C(O)=C1OP(=O)([O-])[O-].[Mg+2] [Ascorbic acid-2-phosphate magnesium salt] | 98%

Same assay, conditions: base octadecanoyl-L-carnitine hydrochloride plus 50 μM test substance (ginkgo biloba extract 30 μg/ml; garcinia extract as hydroxycitric acid), 4 days; control = base alone

Row | SMILES | accumulated triglyceride amount relative to the control (100%), Base Octadecanoyl-L-carnitine hydrochloride
24 | Cc1c(C)c2c(c(C)c1OP(=O)([O-])[O-])CCC(C)(CCCC(C)CCCC(C)CCCC(C)C)O2.[Na+].[Na+] (racemic) [dl-α-Tocopherol phosphate sodium salt] | 102%
25 | Cc1ccc(N(CC2=NCCN2)c2cccc(O)c2)cc1 [Phentolamine hydrochloride] | 65%
26 | CCCCCCCCCCCCCCCC(=O)OC[C@H](O)[C@H]1OC(=O)C(OP(=O)([O-])[O-])=C1[O-].[Na+].[Na+].[Na+] [Ascorbic acid-2-phosphoric acid-6-palmitate sodium salt] | 96%
27 | O=C1O[C@H]([C@@H](O)CO)C(O)=C1O[C@H]1O[C@H](CO)[C@@H](O)[C@H](O)[C@H]1O [Ascorbic acid-2-glucoside] | 102%
28 | O=C1O[C@H]([C@@H](O)CO)C(O)=C1OP(=O)([O-])[O-].[Mg+2] [Ascorbic acid-2-phosphate magnesium salt] | 97%

Test system: human skin tissue three dimensional model (TESTSKIN LSD-d)
Experiment: not given
Conditions: not given

Row | SMILES | carnitine content in the skin model, After 2-hour incubation | carnitine content in the skin model, After 6-hour incubation | carnitine content in the skin model, After 12-hour incubation
29 | CCCCCCCCCCCCCCCCCC(=O)O[C@H](CC(=O)O)C[N+](C)(C)C.[Cl-] [Test substance 5), Octadecanoyl-L-carnitine hydrochloride] | 5 nmol/mg skin protein | 10 nmol/mg skin protein | 25 nmol/mg skin protein
30 | CCCCCC(=O)O[C@H](CC(=O)O)C[N+](C)(C)C.[Cl-] [Test substance 2), Hexanoyl-L-carnitine hydrochloride] | 7 nmol/mg skin protein | 14 nmol/mg skin protein | 21 nmol/mg skin protein

Test system: human skin tissue three dimensional model (TESTSKIN LSD-d)
Experiment: Comparison of percutaneous absorption properties: carnitine content in skin model
Conditions: 1% by mass solution, 50 μL on tissue surface for 2 hours, then 2-hour incubation at 37° C.
Method: The test substances were each dissolved in Dulbecco's PBS (−) to give a 1% by mass solution of the test substance. The test substance solutions were placed, each 50 μL, to a tissue surface of human skin tissue three dimensional model (TESTSKIN™ LSD-d, available from TOYOBO CO., LTD.), and were incubated at 37° C. in a 5% CO2 atmosphere for 2 hours. Thereafter the test substance solutions were aspirated out, and the skin models were further incubated at 37° C. in a 5% CO2 atmosphere for 2, 6 or 12 hours. The skin models were sampled after the lapse of each of the incubation times. The skin models sampled at the incubation times were washed with Dulbecco's PBS (−), and the tissue surfaces on which the test substances had been placed were punched out with a punch 6 mm in diameter. The skin models were then homogenated in a HEPES buffer solution (pH: 7.2), and were quantitatively analyzed using a high performance liquid chromatography to determine the carnitine content in the skin model.
From the analysis results, the carnitine contents in the skin models (unit: nmol/mg skin protein) were obtained for the test substances at each of the incubation times.

Row | SMILES | carnitine content in the skin model, After 2-hour incubation
31 | C[N+](C)(C)C[C@H](O)CC(=O)[O-] [Test substance 1), L-Carnitine, reference compound] | 12 nmol/mg skin protein
32 | CCCCCCCCCCCCCCCCOC(=O)C[C@H](C[N+](C)(C)C)OC(=O)CCCCCCCCCCCCCCC.[Cl-] [Test substance 8), Hexadecanoyl-L-carnitine hexadecyl ester hydrochloride] | 2 nmol/mg skin protein
33 | CCCCCCCCCCCCCCCCOC(=O)C[C@@H](O)C[N+](C)(C)C.[Cl-] [Test substance 6), L-Carnitine hexadecyl ester hydrochloride] | 5 nmol/mg skin protein
34 | CCCCCCCCCCCCCCCC(=O)O[C@H](CC(=O)OC)C[N+](C)(C)C.[Cl-] [Test substance 7), Hexadecanoyl-L-carnitine methyl ester hydrochloride] | 2 nmol/mg skin protein

Same assay, conditions: 1% by mass solution, 50 μL on tissue surface for 2 hours, then 6-hour incubation at 37° C.

Row | SMILES | carnitine content in the skin model, After 6-hour incubation
35 | C[N+](C)(C)C[C@H](O)CC(=O)[O-] [Test substance 1), L-Carnitine, reference compound] | 12 nmol/mg skin protein
36 | CCCCCCCCCCCCCCCCOC(=O)C[C@H](C[N+](C)(C)C)OC(=O)CCCCCCCCCCCCCCC.[Cl-] [Test substance 8), Hexadecanoyl-L-carnitine hexadecyl ester hydrochloride] | 8 nmol/mg skin protein
37 | CCCCCCCCCCCCCCCCOC(=O)C[C@@H](O)C[N+](C)(C)C.[Cl-] [Test substance 6), L-Carnitine hexadecyl ester hydrochloride] | 11 nmol/mg skin protein
38 | CCCCCCCCCCCCCCCC(=O)O[C@H](CC(=O)OC)C[N+](C)(C)C.[Cl-] [Test substance 7), Hexadecanoyl-L-carnitine methyl ester hydrochloride] | 9 nmol/mg skin protein

Same assay, conditions: 1% by mass solution, 50 μL on tissue surface for 2 hours, then 12-hour incubation at 37° C.

Row | SMILES | carnitine content in the skin model, After 12-hour incubation
39 | C[N+](C)(C)C[C@H](O)CC(=O)[O-] [Test substance 1), L-Carnitine, reference compound] | 11 nmol/mg skin protein
40 | CCCCCCCCCCCCCCCCOC(=O)C[C@H](C[N+](C)(C)C)OC(=O)CCCCCCCCCCCCCCC.[Cl-] [Test substance 8), Hexadecanoyl-L-carnitine hexadecyl ester hydrochloride] | 21 nmol/mg skin protein
41 | CCCCCCCCCCCCCCCCOC(=O)C[C@@H](O)C[N+](C)(C)C.[Cl-] [Test substance 6), L-Carnitine hexadecyl ester hydrochloride] | 26 nmol/mg skin protein
42 | CCCCCCCCCCCCCCCC(=O)O[C@H](CC(=O)OC)C[N+](C)(C)C.[Cl-] [Test substance 7), Hexadecanoyl-L-carnitine methyl ester hydrochloride] | 19 nmol/mg skin protein
